# Measured values: patent US20230312528A1, “2-OXO-IMIDAZOLIDINE-4-CARBOXAMIDES AS NAV1.8 INHIBITORS” (Merck Sharp & Dohme LLC, priority 2020, published 2023)
# Target: human NaV1.8 (Homo sapiens (Human), UniProt Q9Y5Y9)
# Assay: Nav1.8 Qube automated patch-clamp assay
# Format: cell-based
# Conditions: human NaV1.8 stably expressed in HEK 293 cells; automated 384-well patch-clamp; resting or inactivated state not specified
# Procedure, shortened: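 Human NaV1.8 in HEK293 cells, automated whole-cell patch clamp at room temperature: 1 Hz train of ten 20 ms pulses to 10 mV from −90 mV, repolarization to −67 mV. First- and tenth-pulse peak currents gave resting and inactivated-state IC50 values via Hill fits.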
# Chain of human NaV1.8 (Q9Y5Y9 whole entry): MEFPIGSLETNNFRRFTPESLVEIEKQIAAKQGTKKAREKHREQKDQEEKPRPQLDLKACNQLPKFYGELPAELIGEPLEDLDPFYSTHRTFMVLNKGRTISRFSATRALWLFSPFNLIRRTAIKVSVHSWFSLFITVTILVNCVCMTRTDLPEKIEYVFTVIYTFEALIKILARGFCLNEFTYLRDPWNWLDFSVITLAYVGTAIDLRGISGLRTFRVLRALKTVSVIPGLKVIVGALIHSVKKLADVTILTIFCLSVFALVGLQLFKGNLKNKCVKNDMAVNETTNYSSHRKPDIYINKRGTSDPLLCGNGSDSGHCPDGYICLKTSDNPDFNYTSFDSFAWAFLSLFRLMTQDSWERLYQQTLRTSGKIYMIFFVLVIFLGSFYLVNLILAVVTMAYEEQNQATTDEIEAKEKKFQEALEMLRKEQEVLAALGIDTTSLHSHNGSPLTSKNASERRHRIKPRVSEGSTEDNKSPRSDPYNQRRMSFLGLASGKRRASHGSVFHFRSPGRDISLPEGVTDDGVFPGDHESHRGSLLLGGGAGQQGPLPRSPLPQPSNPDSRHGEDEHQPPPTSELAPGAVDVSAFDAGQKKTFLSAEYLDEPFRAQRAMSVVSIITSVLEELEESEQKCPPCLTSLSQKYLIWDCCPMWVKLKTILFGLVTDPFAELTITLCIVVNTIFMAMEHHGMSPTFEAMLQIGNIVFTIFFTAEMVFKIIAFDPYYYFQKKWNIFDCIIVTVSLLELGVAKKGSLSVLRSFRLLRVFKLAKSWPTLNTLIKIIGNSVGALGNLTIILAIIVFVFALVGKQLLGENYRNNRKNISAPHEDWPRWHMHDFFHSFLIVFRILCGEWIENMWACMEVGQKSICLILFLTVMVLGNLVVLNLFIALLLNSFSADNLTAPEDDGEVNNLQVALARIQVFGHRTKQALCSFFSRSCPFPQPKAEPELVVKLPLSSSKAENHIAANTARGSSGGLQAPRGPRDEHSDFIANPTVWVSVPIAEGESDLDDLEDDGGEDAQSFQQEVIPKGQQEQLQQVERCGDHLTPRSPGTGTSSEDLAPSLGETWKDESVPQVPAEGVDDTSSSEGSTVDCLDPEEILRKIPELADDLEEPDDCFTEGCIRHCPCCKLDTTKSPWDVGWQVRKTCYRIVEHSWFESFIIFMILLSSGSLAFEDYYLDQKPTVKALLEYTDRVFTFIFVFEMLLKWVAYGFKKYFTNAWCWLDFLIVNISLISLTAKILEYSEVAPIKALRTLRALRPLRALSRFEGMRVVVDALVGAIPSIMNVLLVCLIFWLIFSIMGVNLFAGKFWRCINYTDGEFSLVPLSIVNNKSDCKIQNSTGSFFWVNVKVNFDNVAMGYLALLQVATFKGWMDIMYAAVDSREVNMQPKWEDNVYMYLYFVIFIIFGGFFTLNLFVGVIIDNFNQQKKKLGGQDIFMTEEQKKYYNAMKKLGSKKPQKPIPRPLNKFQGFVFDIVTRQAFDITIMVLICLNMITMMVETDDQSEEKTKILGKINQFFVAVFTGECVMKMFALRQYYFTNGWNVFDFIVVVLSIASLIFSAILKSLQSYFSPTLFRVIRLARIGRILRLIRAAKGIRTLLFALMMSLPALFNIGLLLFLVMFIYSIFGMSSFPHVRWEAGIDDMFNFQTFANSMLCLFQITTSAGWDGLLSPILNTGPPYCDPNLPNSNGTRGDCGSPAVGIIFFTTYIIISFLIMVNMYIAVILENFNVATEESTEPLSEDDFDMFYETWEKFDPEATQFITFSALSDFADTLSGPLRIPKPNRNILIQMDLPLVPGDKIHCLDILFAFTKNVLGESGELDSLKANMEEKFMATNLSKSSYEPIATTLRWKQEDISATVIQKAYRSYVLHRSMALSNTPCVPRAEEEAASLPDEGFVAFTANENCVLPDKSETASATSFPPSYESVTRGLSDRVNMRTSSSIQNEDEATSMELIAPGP
row,Compound,IC50
1,"O=C1NC[C@@H](C(=O)NC(c2ccc(OCC(F)(F)F)nc2)c2ccc(F)c(Cl)c2F)N1 (single isomer, unassigned) [Example 33A, (S)—N—((R or S)-(3-chloro-2,4-difluorophenyl)(6-(2,2,2-trifluoroethoxy)pyridin-3-yl)methyl)-2-oxoimidazolidine-4-carboxamide]",1.3 nM
2,"O=C1NC[C@@H](C(=O)NC(CCc2ccc(Cl)cc2)c2ccc(F)c(Cl)c2F)N1 (single isomer, unassigned) [Example 52A, (4S)—N—((R or S)-1-(3-chloro-2,4-difluorophenyl)-3-(4-chlorophenyl)propyl)-2-oxoimidazolidine-4-carboxamide]",46 nM
3,"O=C1NC[C@@H](C(=O)NC(CC2CCCOC2)c2ccc(F)c(Cl)c2F)N1 (single isomer, unassigned) [Example 26D, (S)-N-((R or S)-1-(3-chloro-2,4-difluorophenyl)-2-((R or S)-tetrahydro-2H-pyran-3-yl)ethyl)-2-oxoimidazolidine-4-carboxamide]",7830 nM
4,"O=C1NC[C@@H](C(=O)NC(c2ccc(F)c(Cl)c2F)[C@@H]2CC[C@@H](C(F)(F)F)CO2)N1 (single isomer, unassigned) [Example 8C, (S)—N—((R or S)-(3-chloro-2,4-difluorophenyl)((trans)-5-(trifluoromethyl)tetrahydro-2H-pyran-2-yl)methyl)-2-oxoimidazolidine-4-carboxamide]",23 nM
5,"O=C1NC[C@@H](C(=O)NC(c2ccc(F)c(Cl)c2F)C2CC3(C2)CC(F)(F)C3)N1 (single isomer, unassigned) [Example 37, (S)-N-((R or S)-(3-chloro-2,4-difluorophenyl)(6,6-difluorospiro[3.3]heptan-2-yl)methyl)-2-oxoimidazolidine-4-carboxamide]",11 nM
6,"O=C1NC[C@@H](C(=O)NC(c2ccc(F)c(Cl)c2F)C2CCCCN2CC(F)(F)F)N1 (single isomer, unassigned) [Example 58C, (S)-N-((R or S)-(3-chloro-2,4-difluorophenyl) ((R or S)-1-(2,2,2-trifluoroethyl)piperidin-2-yl)methyl)-2-oxoimidazolidine-4-carboxamide]",130 nM
7,"N#Cc1cccc(C(NC(=O)[C@@H]2CNC(=O)N2)c2ccc(F)c(Cl)c2)n1 (single isomer, unassigned) [Example 12A, (4S)-N-[((R or S)-3-chloro-4-fluorophenyl)(6-cyanopyridin-2-yl)methyl]-2-oxoimidazolidine-4-carboxamide]",81 nM
8,"O=C1NC[C@@H](C(=O)NC(c2ccc(OCC(F)(F)F)nn2)c2ccc(F)c(Cl)c2F)N1 (single isomer, unassigned) [Example 50A, (4S)—N—((R or S)-(3-chloro-2,4-difluorophenyl)(6-(2,2,2-trifluoroethoxy)-pyridazin-3-yl)methyl)-2-oxoimidazolidine-4-carboxamide]",45 nM
9,"O=C1NC[C@@H](C(=O)NC(c2ccc(F)c(Cl)c2F)[C@@H]2CC[C@@H](C(F)(F)F)CO2)N1 (single isomer, unassigned) [Example 8A, (S)—N—((R or S)-(3-chloro-2,4-difluorophenyl)((trans)-5-(trifluoromethyl)tetrahydro-2H-pyran-2-yl)methyl)-2-oxoimidazolidine-4-carboxamide]",1140 nM
10,"O=C1NC[C@@H](C(=O)NC(c2ccc(OC(F)(F)F)cc2)c2ccc3c(c2)C(F)(F)C3)N1 (single isomer, unassigned) [Example 89, (S)—N—((R or S)-(8,8-difluorobicyclo[4.2.0]octa-1(6),2,4-trien-3-yl)(4-(trifluoromethoxy)phenyl)methyl)-2-oxoimidazolidine-4-carboxamide]",4.9 nM
11,"O=C1NC[C@@H](C(=O)NC(c2ccc(Cl)cc2)c2cccc(OC(F)F)n2)N1 (single isomer, unassigned) [Example 74A, (S)-N-((R or S)-(4-chlorophenyl)(6-(difluoromethoxy)pyridin-2-yl)methyl)-2-oxoimidazolidine-4-carboxamide]",19 nM
12,"O=C1NC[C@@H](C(=O)NC(c2ccc(F)c(Cl)c2)[C@H]2CC[C@H](C(F)(F)F)CC2)N1 (single isomer, unassigned) [Example 32B, (4S)—N—((R or S)-(3-chloro-4-fluorophenyl)(trans-4-(trifluoro-methyl)cyclohexyl)methyl)-2-oxoimidazolidine-4-carboxamide]",67 nM
13,"O=C1NC[C@@H](C(=O)NC(c2ccc(F)c(Cl)c2F)C23CC(C(F)(F)F)(C2)C3)N1 (single isomer, unassigned) [Example 27B, (4S)—N—((R or S)-(3-chloro-2,4-difluorophenyl)(3-(trifluoromethyl)bicyclo[1.1.1]pentan-1-yl)methyl)-2-oxoimidazolidine-4-carboxamide]",244 nM
14,"O=C(NC(c1ccc(Cl)cc1)c1ccc(Cl)cc1)C1CNC(=O)N1CCO (single isomer, unassigned) [Example 21B, (R or S)—N-(bis(4-chlorophenyl)methyl)-3-(2-hydroxyethyl)-2-oxoimidazolidine-4-carboxamide]",14700 nM
15,"O=C1NC[C@@H](C(=O)NC(c2ccc(F)c(Cl)c2)c2csc(C3(C(F)(F)F)CC3)n2)N1 (single isomer, unassigned) [Example 16B, (S)-N-((R or S)-(3-chloro-4-fluoro-phenyl)(2-(1-(trifluoromethyl)cyclopropyl)thiazol-4-yl)methyl)-2-oxoimidazolidine-4-carboxamide]",14 nM
16,"O=C1NC[C@@H](C(=O)NC(c2ccc(OC(F)(F)F)c(Cl)c2)c2ccc(OC(F)(F)F)cn2)N1 (single isomer, unassigned) [Example 39A, (S)—N—((R or S)-(3-chloro-4-(trifluoromethoxy)phenyl)(5-(trifluoromethoxy)pyridin-2-yl)methyl)-2-oxoimidazolidine-4-carboxamide]",1.3 nM
17,"O=C1NC[C@@H](C(=O)NC(c2ccc(F)c(Cl)c2F)C2COC(C(F)(F)F)C2)N1 (single isomer, unassigned) [Example 79B, (S)-N-((R or S)-(3-chloro-2,4-difluoro-phenyl)((cis or trans)-5-(trifluoromethyl)tetrahydrofuran-3-yl)methyl)-2-oxoimidazolidine-4-carboxamide]",190 nM
18,"O=C1NC[C@@H](C(=O)NC(c2ccc(F)c(Cl)c2F)[C@@H]2CC[C@@H](C(F)(F)F)CO2)N1 (single isomer, unassigned) [Example 8B, (S)—N—((R or S)-(3-chloro-2,4-difluorophenyl)((trans)-5-(trifluoromethyl)tetrahydro-2H-pyran-2-yl)methyl)-2-oxoimidazolidine-4-carboxamide]",8.4 nM
19,"Cc1nc2ccc(C(NC(=O)[C@@H]3CNC(=O)N3)c3ccc(Cl)cc3)cc2o1 (single isomer, unassigned) [Example 83B, (S)-N-((R or S)-(4-chlorophenyl)(2-methylbenzo[d]oxazol-6-yl)methyl)-2-oxoimidazolidine-4-carboxamide]",201 nM
20,"O=C1NC[C@@H](C(=O)NC(c2ccc(F)c(Cl)c2)c2nc3ccccc3s2)N1 (single isomer, unassigned) [Example 87, (S)-N-((R or S)-benzo[d]thiazol-2-yl(3-chloro-4-fluoro-phenyl)methyl)-2-oxoimidazolidine-4-carboxamide]",2.9 nM
